Reference: patent publication US4396613A, “23-Ester derivatives of DMT and method of using same” (Eli Lilly and Company, priority 1981, dated 1983)
≈ marks a conversion by molar mass, not a printed value.

Experiments:
[1] = tested on: Staphylococcus aureus V41; test: standard agar-dilution assay (MIC); assay type: cell-based; settings: Staphylococcus aureus V41, penicillin-resistant strain, unit assumed
Description: (§1) The MIC's in Table II were determined by standard agar-dilution assays. The MIC's in Table III were obtained using a conventional broth-dilution microtiter test.
^b Penicillinresistant strain

[2] = tested on: Staphylococcus aureus X400; test: standard agar-dilution assay (MIC); assay type: cell-based; settings: Staphylococcus aureus X400, methicillin-resistant strain, unit assumed
Description: as §1
^c Methicillinresistant-strain

[3] = tested on: Haemophilus influenzae Holt; test: standard agar-dilution assay (MIC); assay type: cell-based; settings: ampicillin-sensitive strain, unit assumed
Description: as §1

[4] = tested on: Haemophilus influenzae R252; test: standard agar-dilution assay (MIC); assay type: cell-based; settings: Haemophilus influenzae R252, ampicillin-resistant strain, unit assumed
Description: as §1

[5] = tested on: Staphylococcus aureus S13E; test: standard agar-dilution assay (MIC); assay type: cell-based; settings: unit assumed
Description: as §1

[6] = tested on: Staphylococcus aureus X1.1; test: standard agar-dilution assay (MIC); assay type: cell-based; settings: unit assumed
Description: as §1

[7] = tested on: Staphylococcus epidermidis EPI1; test: standard agar-dilution assay (MIC); assay type: cell-based; settings: unit assumed
Description: as §1

[8] = tested on: Staphylococcus epidermidis EPI2; test: standard agar-dilution assay (MIC); assay type: cell-based; settings: unit assumed
Description: as §1

[9] = tested on: Streptococcus Group 9960; test: standard agar-dilution assay (MIC); assay type: cell-based; settings: unit assumed
Description: as §1

[10] = tested on: Streptococcus Group D X66; test: standard agar-dilution assay (MIC); assay type: cell-based; settings: unit assumed
Description: as §1

[11] = tested on: Streptococcus pyogenes C203; test: standard agar-dilution assay (MIC); assay type: cell-based; settings: unit assumed
Description: as §1

[12] = tested on: Streptococcus pneumoniae Park I; assay type: cell-based; settings: agar dilution, unit assumed
Description: as §1

[13] = tested on: Mycoplasma gallisepticum; test: conventional broth-dilution microtiter test (MIC); assay type: cell-based; settings: unit assumed
Description: as §1

[14] = tested on: Mycoplasma hyorhinis; test: conventional broth-dilution microtiter test (MIC); assay type: cell-based; settings: unit assumed
Description: as §1

[15] = tested on: Mycoplasma synoviae; test: conventional broth-dilution microtiter test (MIC); assay type: cell-based; settings: unit assumed
Description: as §1

[16] = tested on: Pasteurella multocida 17E; test: conventional broth-dilution microtiter test (MIC); assay type: cell-based; settings: bovine isolate, unit assumed
Description: as §1

[17] = tested on: Pasteurella multocida 60A; test: conventional broth-dilution microtiter test (MIC); assay type: cell-based; settings: avian isolate, unit assumed
Description: as §1

[18] = tested on: Staphylococcus aureus; test: conventional broth-dilution microtiter test (MIC); assay type: cell-based; settings: unit assumed
Description: as §1

[19] = tested on: Streptococcus sp. 80; test: conventional broth-dilution microtiter test (MIC); assay type: cell-based; settings: unit assumed
Description: as §1

[20] = tested on: Streptococcus pyogenes C203; test: experimental infection in mice (ED50); assay type: in vivo; settings: doses given 1 and 4 hours postinfection
Description: The 23-ester derivatives of DMT of this invention have shown in vivo antimicrobial activity against experimental bacterial infections caused by gram-positive bacteria. When two doses of test compound were admininstered to mice with experimental infections, the activity observed was measured as an ED50 value [effective dose in mg/kg to protect 50% of the test animals: see Warren Wick, et al., J. Bacteriol. 81, 233-235 (1961)].
^a mg/kg × 2; doses given 1 and 4 hours postinfection

SMILES	MIC [1] [µg/mL]	MIC [2] [µg/mL]	MIC [3] [µg/mL]	MIC [4] [µg/mL]	MIC [5] [µg/mL]	MIC [6] [µg/mL]	MIC [7] [µg/mL]	MIC [8] [µg/mL]	MIC [9] [µg/mL]	MIC [10] [µg/mL]	MIC [11] [µg/mL]	MIC [12] [µg/mL]	MIC [13] [µg/mL]	MIC [14] [µg/mL]	MIC [15] [µg/mL]	MIC [16] [µg/mL]	MIC [17] [µg/mL]	MIC [18] [µg/mL]	MIC [19] [µg/mL]	also measured
CCC1OC(=O)CC(O)C(C)C(OC2OC(C)C(OC3CC(C)(O)C(O)C(C)O3)C(N(C)C)C2OC(C)=O)C(CC=O)CC(C)C(=O)C=CC(C)=CC1COC(=O)C12CC3CC(CC(C3)C1)C2 (stereo not shown) [Compound 23]	2 (≈ 2.11 µM)	2 (≈ 2.11 µM)	> 128	> 128	2 (≈ 2.11 µM)	2 (≈ 2.11 µM)	2 (≈ 2.11 µM)	4 (≈ 4.23 µM)	4 (≈ 4.23 µM)	4 (≈ 4.23 µM)	2 (≈ 2.11 µM)	1 (≈ 1.06 µM)	6.25 (≈ 6.61 µM)	25 (≈ 26.4 µM)	1.56 (≈ 1.65 µM)	50 (≈ 52.8 µM)	> 50	6.25 (≈ 6.61 µM)	< 0.78	–
CCC1OC(=O)CC(O)C(C)C(OC2OC(C)C(OC3CC(C)(O)C(O)C(C)O3)C(N(C)C)C2OC(C)=O)C(CC=O)CC(C)C(=O)C=CC(C)=CC1COC(=O)OC (stereo not shown) [Compound 24]	0.5 (≈ 0.594 µM)	0.5 (≈ 0.594 µM)	16 (≈ 19 µM)	8 (≈ 9.5 µM)	0.5 (≈ 0.594 µM)	0.5 (≈ 0.594 µM)	0.5 (≈ 0.594 µM)	0.5 (≈ 0.594 µM)	0.5 (≈ 0.594 µM)	0.5 (≈ 0.594 µM)	0.25 (≈ 0.297 µM)	0.06 (≈ 0.0713 µM)	0.78 (≈ 0.926 µM)	1.56 (≈ 1.85 µM)	0.78 (≈ 0.926 µM)	6.25 (≈ 7.42 µM)	12.5 (≈ 14.8 µM)	3.12 (≈ 3.71 µM)	0.78 (≈ 0.926 µM)	–
CCC1OC(=O)CC(O)C(C)C(OC2OC(C)C(OC3CC(C)(O)C(O)C(C)O3)C(N(C)C)C2O)C(CC=O)CC(C)C(=O)C=CC(C)=CC1COC(=O)OC (stereo not shown) [Compound 25]	0.5 (≈ 0.625 µM)	0.5 (≈ 0.625 µM)	8 (≈ 10 µM)	8 (≈ 10 µM)	0.25 (≈ 0.313 µM)	0.25 (≈ 0.313 µM)	0.5 (≈ 0.625 µM)	–	0.5 (≈ 0.625 µM)	0.5 (≈ 0.625 µM)	0.25 (≈ 0.313 µM)	0.06 (≈ 0.075 µM)	0.097 (≈ 0.121 µM)	1.56 (≈ 1.95 µM)	0.097 (≈ 0.121 µM)	6.25 (≈ 7.81 µM)	12.5 (≈ 15.6 µM)	1.56 (≈ 1.95 µM)	0.78 (≈ 0.975 µM)	ED50 ([20]; C203, oral): > 100 mg/kg; ED50 ([20]; C203, sc, subcutaneous): 7.6 mg/kg
CCC1OC(=O)CC(O)C(C)C(OC2OC(C)C(OC3CC(C)(O)C(O)C(C)O3)C(N(C)C)C2O)C(CC=O)CC(C)C(=O)C=CC(C)=CC1COC(=O)NCCCCCCCCN (stereo not shown) [Compound 27]	2 (≈ 2.19 µM)	8 (≈ 8.77 µM)	32 (≈ 35.1 µM)	32 (≈ 35.1 µM)	4 (≈ 4.39 µM)	2 (≈ 2.19 µM)	2 (≈ 2.19 µM)	4 (≈ 4.39 µM)	4 (≈ 4.39 µM)	4 (≈ 4.39 µM)	1 (≈ 1.1 µM)	0.25 (≈ 0.274 µM)	0.78 (≈ 0.855 µM)	3.12 (≈ 3.42 µM)	3.12 (≈ 3.42 µM)	25 (≈ 27.4 µM)	50 (≈ 54.8 µM)	6.25 (≈ 6.85 µM)	0.78 (≈ 0.855 µM)	–
CCC1OC(=O)CC(O)C(C)C(OC2OC(C)C(OC3CC(C)(O)C(O)C(C)O3)C(N(C)C)C2O)C(CC=O)CC(C)C(=O)C=CC(C)=CC1COC(=O)N1CCC(O)CC1 (stereo not shown) [Compound 28]	1 (≈ 1.15 µM)	2 (≈ 2.3 µM)	8 (≈ 9.21 µM)	16 (≈ 18.4 µM)	2 (≈ 2.3 µM)	1 (≈ 1.15 µM)	0.5 (≈ 0.575 µM)	2 (≈ 2.3 µM)	1 (≈ 1.15 µM)	1 (≈ 1.15 µM)	0.25 (≈ 0.288 µM)	0.125 (≈ 0.144 µM)	0.39 (≈ 0.449 µM)	0.78 (≈ 0.898 µM)	0.78 (≈ 0.898 µM)	12.5 (≈ 14.4 µM)	25 (≈ 28.8 µM)	1.56 (≈ 1.8 µM)	0.39 (≈ 0.449 µM)	–
CCC1OC(=O)CC(O)C(C)C(OC2OC(C)C(OC3CC(C)(O)C(O)C(C)O3)C(N(C)C)C2O)C(CC=O)CC(C)C(=O)C=CC(C)=CC1COC(=O)NCCN1CCOCC1 (stereo not shown) [Compound 29]	1 (≈ 1.11 µM)	4 (≈ 4.45 µM)	16 (≈ 17.8 µM)	16 (≈ 17.8 µM)	2 (≈ 2.23 µM)	1 (≈ 1.11 µM)	1 (≈ 1.11 µM)	2 (≈ 2.23 µM)	2 (≈ 2.23 µM)	2 (≈ 2.23 µM)	0.5 (≈ 0.557 µM)	0.125 (≈ 0.139 µM)	0.39 (≈ 0.434 µM)	6.25 (≈ 6.96 µM)	1.56 (≈ 1.74 µM)	12.5 (≈ 13.9 µM)	25 (≈ 27.8 µM)	1.56 (≈ 1.74 µM)	0.78 (≈ 0.868 µM)	–
